Earlier results as cited in US8288437B2, “Salts, aqueous liquid compositions containing salts of abscisic acid analogs and methods of their preparation” (Valent BioSciences Corporation, priority 2008, dated 2012).

Conditions: pure water at room temperature

Structure (SMILES): CC1=CC(=O)CC(C)(C)[C@@]1(O)/C=C/C(C)=C\C(=O)O [(S)-(+)-abscisic acid, 2-cis-,4-trans-(S)-(+)-abscisic acid]
- highest concentration that can be achieved in pure water: ≤ 3000 ppm
